Where two headings read alike, the source gives them in different places.
Experiments:
Format in all cases: cell-based
[1] = system: Staphylococcus aureus Oxford; experiment: minimum inhibitory concentration, Staphylococcus aureus Oxford (DST agar+10% horse blood)
Method: (§1) The minimum inhibitory concentrations (MIC) of the compound (e54) was determined using a standard DST agar+10% horse blood substrate. The tests used an undiluted inoculum of bacteria. […]
(§2) The minimum inhibitory concentrations (MIC) of this compound was determined using a standard DST agar+10% horse blood substrate.
(§3) The minimum inhibitory concentrations (MIC) of this compound was determined using a standard DST agar+10% horse blood substrate. The tests used an undiluted inoculum of bacteria.

Klebsiella aerogenes A = experiment: minimum inhibitory concentration, Klebsiella aerogenes A (DST agar+10% horse blood)
Method: as §1, §2, §3

Streptococcus faecalis I = experiment: minimum inhibitory concentration, Streptococcus faecalis I (DST agar+10% horse blood); details: Enterococcus faecalis
Method: as §1, §2, §3

Proteus mirabilis C977 = experiment: minimum inhibitory concentration, Proteus mirabilis C977 (DST agar+10% horse blood)
Method: as §1, §2, §3

Escherichia coli JT 39 = experiment: minimum inhibitory concentration, Escherichia coli JT 39 (DST agar+10% horse blood)
Method: as §1, §2, §3

E. coli ESS = experiment: minimum inhibitory concentration, E. coli ESS (DST agar+10% horse blood); details: Escherichia coli
Method: as §1, §2, §3

Enterobacter cloacae N1 = experiment: minimum inhibitory concentration, Enterobacter cloacae N1 (DST agar+10% horse blood)
Method: as §1, §2, §3

Bacillus subtilis A = experiment: minimum inhibitory concentration, Bacillus subtilis A (DST agar+10% horse blood)
Method: as §1, §2, §3

[2] = system: Staphylococcus aureus 1517; experiment: minimum inhibitory concentration, Staphylococcus aureus 1517 (DST agar+10% horse blood)
Method: as §1, §2, §3

Pseudomonas aeruginosa A = experiment: minimum inhibitory concentration, Pseudomonas aeruginosa A (DST agar+10% horse blood)
Method: as §1, §2, §3

Proteus morganii I580 = experiment: minimum inhibitory concentration, Proteus morganii I580 (DST agar+10% horse blood); details: Morganella morganii
Method: The minimum inhibitory concentrations (MIC) of the compound (e54) was determined using a standard DST agar+10% horse blood substrate. The tests used an undiluted inoculum of bacteria.
Sodium (5R,6S)-3-(2-acetamidoethylthio)--6-ethyl-7-oxo-1-azabicyclo[3.2.0]-hept-2-ene-2-carboxylate [drawing 60] p-Methoxycarbonylbenzyl (5R,6S)-3-(2-acetamidoethylthio)-6-ethyl-7-oxo-1-azabicyclo[3.2.0]hept-2-ene-2-carboxylate (e58) (18 mg) was added to the cathodic compartment of an H-type divided two-compartment electrochemical cell, with a mercury cathode and a platinum anode. The cell contained degassed 0.1 M n-Bu4 NI in dimethylformamide as electrolyte. The volume of the catholyte was about 15 ml [glacial acetic acid (about 10 mg) added] and the volume of the anolyte was about 8 ml. A potentiostat was employed to fix the potential of the cathode at -1.9 V with respect to the standard calomel electrode, and the initial current, about 56 mA, fell to about 15 mA after about 15 min. The catholyte was removed from the cell and the solvent was evaporated in vacuo. The residue was taken up in CH2 Cl2 (10 ml) and washed with water (10 ml). The aqueous phase was separated and washed with CH2 Cl2. The aqueous phase, containing the tetrabutylammonium salt corresponding to (e63) was passed through an Amberlite IR 120 (Na form) column (17×1 cm) and the eluate was reduced to low volume by evaporation in vacuo. The residue was passed through a Biogel P-2 column, to yield fractions containing sodium (5R,6S)-3-(2-acetamidoethylthio)-6-ethyl-7-oxo-1-azabicyclo[3.2.0]hept-2-ene-2-carboxylate (e63) having λmax 298 nm. The minimum inhibitory concentrations (MIC) of this compound was determined using a standard DST agar+10% horse blood substrate.
Sodium (5R,6S)-3-[(E)-2-acetamidoethenylthio]-6-ethyl-7-oxo-1-azabicyclo[3.2.0]hept-2-ene-2-carboxylate [drawing 68] p-Methoxycarbonylbenzyl (5R,6S)-3-[(E)-2-acetamidoethenylthio]-6-ethyl-7-oxo-1-azabicyclo[3.2.0]hept-2-ene-2-carboxylate (e72) (64 mg) in solution in 0.1 M (n-C4 H9)4 NBF4 in dry DMF was added to the cathodic compartment of a divided cylindrical electrochemical cell, with a mercury cathode and platinum anode. The volume of electrolyte in the cathodic compartment was about 25 ml, and in the anodic compartment about 10 ml. Acetic acid (12 mg) was added to the cathodic compartment and ethanol (250 mg) was added to the anodic compartment. The cell was degassed by passing argon for 30 min. The potentiostat was engaged to maintain the potential of the cathode at -1.9 V w.r.t. standard calomel electrode. The initial current (40 mA) fell to about 5 mA after 25 min. The solvent was removed from the catholyte by evaporation in vacuo and the residual oil was taken up in CH2 Cl2 (20 ml) and extracted with water (15 ml) containing sodium tetrafluoroborate (100 mg). The aqueous extract was washed with CH2 Cl2 and then passed down an Amberlite 1R 120 column (1×20 cm) in the sodium form. The volume of the eluate was reduced to about 5 ml by evaporation in vacuo and loaded onto a Biogel P-2 column (18×3 cm). Elution with water yielded fractions containing sodium (5R,6S)-3-[(E)-2-acetamidoethenylthio]-6-ethyl-7-oxo-1-azabicyclo[3.2.0]hept-2-ene-2-carboxylate (e73) λmax 308 nm. The minimum inhibitory concentrations (MIC) of this compound was determined using a standard DST agar+10% horse blood substrate.
Sodium (5R,6R)-3-[(E)-2-acetamidoethenylthio]-6-(1-benzylthioethyl)-7-oxo-1-azabicyclo[3.2.0]hept-2-ene-2-carboxylate [drawing 87] The least polar crystalline isomer of the ester (e93) (40 mg) obtained in Example 70 was added to a mixture of 5% Pd on C (60 mg) in 20% aqueous dioxan (5 ml) which had been prehydrogenated for 0.5 h. Hydrogenation was continued for 4 h and the mixture was filtered through Celite after adding NaHCO3 (7 mg) and water (10 ml). The solution was concentrated to a volume of about 10 ml and was then washed with ethyl acetate (3×30 ml). […]

[3] = system: Streptococcus pneumoniae CN33; experiment: minimum inhibitory concentration, Streptococcus pneumoniae CN33 (DST agar+10% horse blood)
Method: as §1, §2, §3

Escherichia coli 0111 = experiment: minimum inhibitory concentration, Escherichia coli 0111 (DST agar+10% horse blood)
Method: as §1, §2, §3

Shigella sonnei MB 11967 = experiment: minimum inhibitory concentration, Shigella sonnei MB 11967 (DST agar+10% horse blood)
Method: as §1, §2, §3

Serratia marcescens US20 = experiment: minimum inhibitory concentration, Serratia marcescens US20 (DST agar+10% horse blood)
Method: as §1, §2, §3

[4] = system: Staphylococcus aureus Russell; experiment: minimum inhibitory concentration, Staphylococcus aureus Russell (DST agar+10% horse blood)
Method: as §1, §2, §3

Proteus rettgeri WM16 = experiment: minimum inhibitory concentration, Proteus rettgeri WM16 (DST agar+10% horse blood); details: Providencia rettgeri
Method: as §1, §2, §3

[5] = system: Streptococcus pyogenes CN10; experiment: minimum inhibitory concentration, Streptococcus pyogenes CN10 (DST agar+10% horse blood)
Method: as §1, §2, §3

Citrobacter freundii E8 = experiment: minimum inhibitory concentration, Citrobacter freundii E8 (DST agar+10% horse blood)
Method: as §1, §2, §3

[6] = system: Salmonella typhimurium CT10; experiment: minimum inhibitory concentration, Salmonella typhimurium CT10 (DST agar+10% horse blood); details: Salmonella enterica
Method: as §1, §2, §3

Proteus vulgaris WO91 = experiment: minimum inhibitory concentration, Proteus vulgaris WO91 (DST agar+10% horse blood)
Method: as §1, §2, §3

[7] = Enterobacter cloacae, Enterobactor cloacae N1
[8] = Enterobacter cloacae N1, undiluted inoculum
[9] = Proteus morganii I580, DST agar+10% horse blood, undiluted inoculum, read-out: MIC

CC(=O)N/C=C/SC1=C(C(=O)[O-])N2C(=O)[C@H](C(C)SCCNC(C)=O)[C@H]2C1.[Na+] (stereo partly drawn) [e98, Sodium (5R,6R)-3-[(E)-2-acetamidoethenylthio]-6-[1-(2-acetamidoethylthio)ethyl]-7-oxo-1-azabicyclo[3.2.0]hept-2-ene-2-carboxylate]
MIC [1]: 1.2 µg/mL
MIC (Klebsiella aerogenes A): 5 µg/mL
MIC (Streptococcus faecalis I): 50 µg/mL
MIC (Proteus mirabilis C977): 12.5 µg/mL
MIC (Escherichia coli JT 39; JT39): 5 µg/mL
MIC (E. coli ESS): 1.2 µg/mL
MIC (Enterobacter cloacae N1; [7]): 5 µg/mL
MIC (Bacillus subtilis A): 2.5 µg/mL
MIC [2]: 12.5 µg/mL
MIC (Pseudomonas aeruginosa A): > 50 µg/mL
MIC (Proteus morganii I580; I580): 25 µg/mL
MIC [3]: 0.2 µg/mL
MIC (Escherichia coli 0111): 5 µg/mL
MIC (Shigella sonnei MB 11967; MB11967): 5 µg/mL
MIC (Serratia marcescens US20): 12.5 µg/mL
MIC [4]: 2.5 µg/mL
MIC (Proteus rettgeri WM16): 12.5 µg/mL
MIC [5]: 0.5 µg/mL
MIC (Citrobacter freundii E8): 5 µg/mL
MIC [6]: 2.5 µg/mL
MIC (Proteus vulgaris WO91): 12.5 µg/mL

CSC(C)[C@H]1C(=O)N2C(C(=O)[O-])=C(S/C=C/NC(C)=O)C[C@H]12.[Na+] (single isomer, unassigned) [e101]
MIC ([1]; undiluted inoculum): 0.5 µg/mL
MIC (Klebsiella aerogenes A; undiluted inoculum): 2.5 µg/mL
MIC (Streptococcus faecalis I; undiluted inoculum): 12.5 µg/mL
MIC (Proteus mirabilis C977; undiluted inoculum): 12.5 µg/mL
MIC (Escherichia coli JT 39; JT39, undiluted inoculum): 2.5 µg/mL
MIC (E. coli ESS; undiluted inoculum): 1.2 µg/mL
MIC (Enterobacter cloacae N1; [8]): 2.5 µg/mL
MIC (Bacillus subtilis A; undiluted inoculum): 1.2 µg/mL
MIC ([2]; undiluted inoculum): 12.5 µg/mL
MIC (Pseudomonas aeruginosa A; undiluted inoculum): 50 µg/mL
MIC (Proteus morganii I580; [9]): 12.5 µg/mL
MIC ([3]; undiluted inoculum): 0.1 µg/mL
MIC (Escherichia coli 0111; undiluted inoculum): 2.5 µg/mL
MIC (Shigella sonnei MB 11967; MB11967, undiluted inoculum): 1.2 µg/mL
MIC (Serratia marcescens US20; undiluted inoculum): 5 µg/mL
MIC ([4]; undiluted inoculum): 0.5 µg/mL
MIC (Proteus rettgeri WM16; undiluted inoculum): 5 µg/mL
MIC ([5]; undiluted inoculum): 0.2 µg/mL
MIC (Citrobacter freundii E8; undiluted inoculum): 5 µg/mL
MIC ([6]; undiluted inoculum): 1.2 µg/mL
MIC (Proteus vulgaris WO91; undiluted inoculum): 5 µg/mL

C=CCSC(C)[C@H]1C(=O)N2C(C(=O)[O-])=C(S/C=C/NC(C)=O)C[C@H]12.[Na+] (stereo partly drawn) [e96, Sodium (5R,6R)-3-[(E)-2-acetamidoethenylthio]-6-(1-allylthioethyl)-7-oxo-1-azabicyclo[3.2.0]hept-2-ene-2-carboxylate]
MIC [1]: 0.8 µg/mL
MIC (Klebsiella aerogenes A): 6.2 µg/mL
MIC (Streptococcus faecalis I): 50 µg/mL
MIC (Proteus mirabilis C977): 100 µg/mL
MIC (Escherichia coli JT 39; JT39): 25 µg/mL
MIC (E. coli ESS): 1.6 µg/mL
MIC (Enterobacter cloacae N1; [7]): 25 µg/mL
MIC (Bacillus subtilis A): 1.6 µg/mL
MIC [2]: 12.5 µg/mL
MIC (Pseudomonas aeruginosa A): > 100 µg/mL
MIC (Proteus morganii I580; I580): 50 µg/mL
MIC [3]: ≤ 0.2 µg/mL
MIC (Escherichia coli 0111): 50 µg/mL
MIC (Shigella sonnei MB 11967; MB11967): 25 µg/mL
MIC (Serratia marcescens US20): 50 µg/mL
MIC [4]: 1.6 µg/mL
MIC (Proteus rettgeri WM16): 50 µg/mL
MIC [5]: 0.4 µg/mL
MIC (Citrobacter freundii E8): 50 µg/mL
MIC [6]: 25 µg/mL
MIC (Proteus vulgaris WO91): 25 µg/mL

CC[C@H]1C(=O)N2C(C(=O)[O-])=C(S/C=C/NC(C)=O)C[C@H]12.[Na+] [e54, sodium (5R,6R)-3-[(E)-2-acetamidoethenylthio]-6-ethyl-7-oxo-1-azabicyclo[3.2.0]hept-2-ene-2-carboxylate]
MIC ([1]; undiluted inoculum): 0.4 µg/mL
MIC (Klebsiella aerogenes A; undiluted inoculum): 3.1 µg/mL
MIC (Streptococcus faecalis I; undiluted inoculum): 25 µg/mL
MIC (Proteus mirabilis C977; undiluted inoculum): 25 µg/mL
MIC (Escherichia coli JT 39; JT39, undiluted inoculum): 3.1 µg/mL
MIC (E. coli ESS; undiluted inoculum): 0.4 µg/mL
MIC (Enterobacter cloacae N1; [8]): 25 µg/mL
MIC (Bacillus subtilis A; undiluted inoculum): 0.8 µg/mL
MIC ([2]; undiluted inoculum): 12.5 µg/mL
MIC (Pseudomonas aeruginosa A; undiluted inoculum): > 50 µg/mL
MIC (Proteus morganii I580; [9]): 25 µg/mL
MIC ([3]; undiluted inoculum): 0.1 µg/mL
MIC (Escherichia coli 0111; undiluted inoculum): 3.1 µg/mL
MIC (Shigella sonnei MB 11967; MB11967, undiluted inoculum): 3.1 µg/mL
MIC (Serratia marcescens US20; undiluted inoculum): 12.5 µg/mL
MIC ([4]; undiluted inoculum): 0.4 µg/mL
MIC (Proteus rettgeri WM16; undiluted inoculum): 25 µg/mL
MIC ([5]; undiluted inoculum): 0.2 µg/mL
MIC (Citrobacter freundii E8; undiluted inoculum): 12.5 µg/mL
MIC ([6]; undiluted inoculum): 3.1 µg/mL
MIC (Proteus vulgaris WO91; undiluted inoculum): 25 µg/mL

Reference: patent US4278686A, “Carbapenum derivatives, a process for their preparation and their use in pharmaceutical compositions and intermediates” (Beecham Group Limited, priority 1978, dated 1981)
